Assay [1] has as its system Magnaporthe grisea (Pyricularia oryzae—PYRIOR). The assay can be described thus: microbe, parasite or virus in culture. The assay is classed as cell-based. The conditions noted are these: Pyricularia oryzae, read-out: PYRIOR in vitro Growth Inhibition.
The subject of assay [2] is Rhizoctonia solani (RHIZSO). The assay can be described thus: microbe, parasite or virus in culture. The assay is classed as cell-based. The conditions noted are these: Rhizoctonia solani, read-out: RHIZSO in vitro Growth Inhibition.
Assay [3] concerns Mycosphaerella graminicola (Septoria tritici—SEPTTR). The assay can be described thus: In vitro fungal growth inhibition, Mycosphaerella graminicola (SEPTTR). The assay is classed as cell-based. The conditions noted are these: Zymoseptoria tritici, read-out: SEPTTR in vitro Growth Inhibition.
Assay [4] deals with Stagonospora nodorum (Leptosphaeria nodorum—LEPTNO). The assay can be described thus: In vitro fungal growth inhibition, Stagonospora nodorum (LEPTNO). The assay is classed as cell-based. Conditions: Leptosphaeria, read-out: LEPTNO in vitro Growth Inhibition.
For another assay, the system named is Ustilago maydis (USTIMA). The assay can be described thus: microbe, parasite or virus in culture. The assay is classed as cell-based. Conditions: Mycosarcoma maydis, read-out: USTIMA in vitro Growth Inhibition.
The subject of assay [5] is Phytophthora infestans (PHYTIN). As to the kind of experiment: microbe, parasite or virus in culture. The assay is classed as cell-based. Conditions: Phytophthora infestans, read-out: PHYTIN in vitro Growth Inhibition.
Assay [6] concerns Phytophthora infestans—PHYTIN. The assay can be described thus: whole plant or invertebrate. The assay is classed as in vivo. The conditions noted are these: Phytophthora, in Solanum lycopersicum, 24 h, read-out: PHYTIN in vivo 1 Day Protectant.
Assay [7] concerns Puccinia recondita—PUCCRT. The assay can be described thus: Brown Rust of Wheat, in vivo whole plant, 24 Hour Protectant. The conditions noted are these: for pest or weed control at 100 ppm: Puccinia, read-out: PUCCRT in vivo 1 Day Protectant.
The test system of a further assay is Erysiphe graminis—ERYSGT. As to the kind of experiment: Powdery Mildew of Wheat, in vivo whole plant, 24 Hour Protectant. Conditions: for pest or weed control at 100 ppm: Erysiphe, control of fungal infection vs untreated plants, read-out: ERYSGT in vivo 1 Day Protectant.
The subject of the next assay is Septoria tritici—SEPTTR. The assay can be described thus: Leaf Blotch of Wheat, in vivo whole plant, 24 Hour Protectant. Conditions: for pest or weed control at 100 ppm: Zymoseptoria tritici, 24 h, read-out: SEPTTR in vivo 1 Day Protectant.
The test system of assay [8] is Leptosphaeria nodorum—LEPTNO. As to the kind of experiment: Glume Blotch of Wheat, in vivo whole plant, 24 Hour Protectant. The conditions noted are these: for pest or weed control at 100 ppm: Leptosphaeria, read-out: LEPTNO in vivo 1 Day Protectant.
Setting [9] is: wheat plants sprayed at 100 ppm, inoculated after 24 hours, control of fungal infection vs untreated plants.
Where [10] appears, read: wheat plants sprayed at 100 ppm, inoculated after 24 hours.
The mark [11] stands for this setting: 100 ppm spray, 24 hour protectant, wheat, control of fungal infection vs untreated plants.
Setting [12] is: 100 ppm spray, 24 hour protectant, wheat.
[13] abbreviates: 100 ppm spray, wheat, 24 hour protectant, control of fungal infection vs untreated plants.
Setting [14] is: 100 ppm spray, wheat, 24 hour protectant.

Where two headings read alike, the source gives them in different places. A value given as a limit tells only on which side of the number the result lay.

Results on 12 compounds are retold here after patent publication US6706740B2, “Fungicidal heterocyclic aromatic amides and their compositions, methods of use and preparation” (Dow AgroSciences LLC, priority 1999, dated 2004).

In general, inhibition refers to the percentage by which the read-out fell short of the control.

On to `CC(C)C(=O)O[C@H]1[C@H](C)OC(=O)[C@@H](NC(=O)c2nccnc2O)COC(=O)[C@@H]1Cc1ccccc1` [Compound 534], for which the inhibition at 25 ppm in [1] is over 80%; in [2] it was under 80%; in [3] (25 ppm in the growth medium) it was over 80%; in assay [4] (25 ppm in the growth medium) it was over 80%; in the assay with Ustilago maydis (USTIMA) it was under 80%; in [5], over 80%. The pest or weed control at 100 ppm in assay [6] was under 25%; in assay [7] (setting [9]), 25 to 74%; in the assay on Erysiphe graminis—ERYSGT (setting [10]), under 25%; in the assay on Septoria tritici—SEPTTR (setting [9]), 25 to 74%. The “LEPTNO in vivo 1 Day Protectant” value in assay [8] (setting [9]) is recorded as “+ +”.

Turning to `COc1ccnc(C(=O)NC2CCCC2=O)c1O` (stereo not drawn) [Compound 249], the inhibition at 25 ppm (in assay [1]; in assay [2]; in [3] (25 ppm in growth medium); in assay [4] (25 ppm in growth medium); in the assay on Ustilago maydis (USTIMA); in assay [5]) was under 80% throughout. The pest or weed control at 100 ppm is under 25% in assay [6]; under 25% in assay [7] (setting [11]); under 25% with Erysiphe graminis—ERYSGT (setting [12]); 25 to 74% with Septoria tritici—SEPTTR (setting [11]); 25 to 74% in assay [8] (setting [11]).

On to `COc1ccnc(C(=O)Nc2ccc(C(=O)c3ccc(C(F)(F)F)cc3)cc2)c1O` [Compound 406], for which the inhibition at 25 ppm (in [1]; in assay [2]; in assay [3] (25 ppm in growth medium); in assay [4] (25 ppm in growth medium); in the assay on Ustilago maydis (USTIMA); in assay [5]) was under 80% in each case. In addition, the pest or weed control at 100 ppm in assay [6] was under 25%; in [7] (setting [13]) it was under 25%; with Erysiphe graminis—ERYSGT (setting [14]), 25 to 74%; in the assay with Septoria tritici—SEPTTR (setting [13]), 25 to 74%; in assay [8] (setting [13]), 25 to 74%.

As for `COc1ccnc(C(=O)NC2CC(C)(C)C3OC3[C@H](C)[C@H]2C)c1O` (stereo partly drawn) [Compound 280], the inhibition at 25 ppm (in assay [1]; in assay [2]; in assay [3] (25 ppm in growth medium); in assay [4] (25 ppm in growth medium); with Ustilago maydis (USTIMA); in assay [5]) was under 80% each time. Besides, the pest or weed control at 100 ppm was 25 to 74% in assay [6]; 25 to 74% in assay [7] (setting [11]); under 25% in the assay with Erysiphe graminis—ERYSGT (setting [12]); 25 to 74% in the assay with Septoria tritici—SEPTTR (setting [11]); 25 to 74% in [8] (setting [11]).

In the case of `COc1ccnc(C(=O)N[C@@H]2OC[C@@H](OCc3ccccc3)[C@H](OCc3ccccc3)[C@H]2OCc2ccccc2)c1O` [Compound 332], the inhibition at 25 ppm (in assay [1]; in assay [2]; in assay [3] (25 ppm in growth medium); in [4] (25 ppm in growth medium); in the assay on Ustilago maydis (USTIMA); in [5]) was under 80% in each case. Also, the pest or weed control at 100 ppm in [6] was under 25%; in assay [7] (setting [13]) it was under 25%; with Erysiphe graminis—ERYSGT (setting [14]), under 25%; with Septoria tritici—SEPTTR (setting [13]) it was 25 to 74%; in assay [8] (setting [13]), 25 to 74%.

`CSc1ccnc(C(=O)NC2CC(C)(C)CC(C)(C)C2)c1O` [Compound 477]: the inhibition at 25 ppm (in [1]; in assay [2]; in [3] (25 ppm in the growth medium); in assay [4] (25 ppm in the growth medium); in the assay with Ustilago maydis (USTIMA); in [5]) was under 80% in each case. Further, the pest or weed control at 100 ppm in assay [6] was under 25%; in [7] (setting [9]) it was under 25%; in the assay on Erysiphe graminis—ERYSGT (setting [10]) it was under 25%; with Septoria tritici—SEPTTR (setting [9]), 25 to 74%; in [8] (setting [9]), 25 to 74%.

As for `COc1ccnc(C(=O)NC2CC(C)(C)CC(C)(C3CC3)C2)c1OC(C)=O` (stereo not drawn) [Compound 573], the inhibition at 25 ppm in [1] is under 80%; in assay [2], under 80%; in [3] (25 ppm in the growth medium) it was under 80%; in assay [4] (25 ppm in the growth medium), over 80%; in the assay on Ustilago maydis (USTIMA), under 80%; in assay [5], under 80%. In addition, the figures for the pest or weed control at 100 ppm (in assay [6]; with Erysiphe graminis—ERYSGT (setting [10]); with Septoria tritici—SEPTTR (setting [9])) were under 25%, under 25% and 25 to 74%, respectively. The “PUCCRT in vivo 1 Day Protectant” value in [7] (setting [9]) is reported as “+ +”. The “LEPTNO in vivo 1 Day Protectant” value in [8] (setting [9]) is listed as “+ +”.

In the case of `COc1ccnc(C(=O)Nc2cc(C)c(OC(=O)c3ccccc3)c(C)c2)c1O` [Compound 456], the inhibition at 25 ppm in assay [1] is under 80%; in assay [2] it was under 80%; in [3] (25 ppm in growth medium) it was over 80%; in [4] (25 ppm in growth medium), over 80%; with Ustilago maydis (USTIMA), under 80%; in [5], under 80%. The pest or weed control at 100 ppm in assay [6] was under 25%; in [7] (setting [13]), under 25%; in the assay with Erysiphe graminis—ERYSGT (setting [14]), under 25%; in the assay with Septoria tritici—SEPTTR (setting [13]), 25 to 74%; in assay [8] (setting [13]), under 25%.

For the compound `COc1ccnc(C(=O)N[C@H]2CC(C)(C)[C@H](O)C(C)(C)C2)c1O` [Compound 264, trans-4-HYDROXY-3,3,5,5-TETRAMETHYLPICOLINAMIDE], the inhibition at 25 ppm (in assay [1]; in assay [2]; in [3] (25 ppm in growth medium); in assay [4] (25 ppm in growth medium); with Ustilago maydis (USTIMA); in [5]) was under 80% in each case. Moreover, the pest or weed control at 100 ppm in [6] is under 25%; in assay [7] (setting [11]), 25 to 74%; in the assay on Erysiphe graminis—ERYSGT (setting [12]), under 25%; in the assay with Septoria tritici—SEPTTR (setting [11]) it was 25 to 74%; in assay [8] (setting [11]), under 25%.

For the compound `CCC1(C)CC(NC(=O)c2nccc(OC)c2O)CC(C)(C)C1` (stereo not drawn) [Compound 251], the inhibition at 25 ppm is under 80% in assay [1]; under 80% in [2]; over 80% in assay [3] (25 ppm in growth medium); over 80% in [4] (25 ppm in growth medium); under 80% with Ustilago maydis (USTIMA); over 80% in assay [5]. Besides, the pest or weed control at 100 ppm in assay [6] was 25 to 74%; with Erysiphe graminis—ERYSGT (setting [12]) it was under 25%. For the same compound, the “PUCCRT in vivo 1 Day Protectant” value in assay [7] (setting [11]) is “+ +”. The “SEPTTR in vivo 1 Day Protectant” value in the assay on Septoria tritici—SEPTTR (setting [11]) was “+ +”. The “LEPTNO in vivo 1 Day Protectant” value in assay [8] (setting [11]) is “+ +”.

For the compound `COc1ccnc(C(=O)N[C@H]2COC(=O)[C@H](Cc3ccccc3)[C@@H](OC(=O)C(C)C)[C@H](C)OC2=O)c1OC(=O)Cc1ccccc1` [Compound 648], the inhibition at 25 ppm in [1] was over 80%; in assay [2] it was under 80%; in assay [3], under 80%; in assay [4] it was under 80%; in the assay on Ustilago maydis (USTIMA), under 80%; in assay [5] it was under 80%. In addition, in assay [6], the pest or weed control at 100 ppm was under 25%. Besides, the “PUCCRT in vivo 1 Day Protectant” value in [7] (in vivo) was “+ +”. For the same compound, the “ERYSGT in vivo 1 Day Protectant” value with Erysiphe graminis—ERYSGT (in vivo) was “+ +”. Further, the “SEPTTR in vivo 1 Day Protectant” value in the assay on Septoria tritici—SEPTTR (in vivo) was “+ +”. Further, the “LEPTNO in vivo 1 Day Protectant” value in assay [8] (in vivo) is recorded as “+ +”.

With `O=C(Nc1cccc(Oc2ccc(C(F)(F)F)cc2)c1)c1nc(Br)ccc1O` [Compound 496], the inhibition at 25 ppm (in [1]; in [2]; in [3] (25 ppm in the growth medium); in assay [4] (25 ppm in the growth medium); in the assay on Ustilago maydis (USTIMA); in assay [5]) was under 80% throughout. Further, the pest or weed control at 100 ppm in assay [6] is under 25%; in [7] (setting [9]), 25 to 74%; in the assay with Erysiphe graminis—ERYSGT (setting [10]) it was under 25%; with Septoria tritici—SEPTTR (setting [9]), 25 to 74%; in [8] (setting [9]), under 25%.
